Assays:
PDGF-Ra = target: T1, PDGF-Ra (Homo sapiens, UniProt P16234); test: Inhibitory activity against PDGF-Ra phosphorylation by PDGF-AA stimulation using G292; assay type: cell-based; conditions: for IC50: > means inhibition at indicated concentration not more than 50%, < and << not less than 50%, read-out: PDGF (E) IC50; for inhibition at 0.1 µM: G292, figure within parentheses in >100( ), at 100 nM, read-out: PDGF (E) inhibition (%) at 100 nM
T1 construct: host or cells: G-292 human osteosarcoma cells
T1 sequence (P16234 24-1089): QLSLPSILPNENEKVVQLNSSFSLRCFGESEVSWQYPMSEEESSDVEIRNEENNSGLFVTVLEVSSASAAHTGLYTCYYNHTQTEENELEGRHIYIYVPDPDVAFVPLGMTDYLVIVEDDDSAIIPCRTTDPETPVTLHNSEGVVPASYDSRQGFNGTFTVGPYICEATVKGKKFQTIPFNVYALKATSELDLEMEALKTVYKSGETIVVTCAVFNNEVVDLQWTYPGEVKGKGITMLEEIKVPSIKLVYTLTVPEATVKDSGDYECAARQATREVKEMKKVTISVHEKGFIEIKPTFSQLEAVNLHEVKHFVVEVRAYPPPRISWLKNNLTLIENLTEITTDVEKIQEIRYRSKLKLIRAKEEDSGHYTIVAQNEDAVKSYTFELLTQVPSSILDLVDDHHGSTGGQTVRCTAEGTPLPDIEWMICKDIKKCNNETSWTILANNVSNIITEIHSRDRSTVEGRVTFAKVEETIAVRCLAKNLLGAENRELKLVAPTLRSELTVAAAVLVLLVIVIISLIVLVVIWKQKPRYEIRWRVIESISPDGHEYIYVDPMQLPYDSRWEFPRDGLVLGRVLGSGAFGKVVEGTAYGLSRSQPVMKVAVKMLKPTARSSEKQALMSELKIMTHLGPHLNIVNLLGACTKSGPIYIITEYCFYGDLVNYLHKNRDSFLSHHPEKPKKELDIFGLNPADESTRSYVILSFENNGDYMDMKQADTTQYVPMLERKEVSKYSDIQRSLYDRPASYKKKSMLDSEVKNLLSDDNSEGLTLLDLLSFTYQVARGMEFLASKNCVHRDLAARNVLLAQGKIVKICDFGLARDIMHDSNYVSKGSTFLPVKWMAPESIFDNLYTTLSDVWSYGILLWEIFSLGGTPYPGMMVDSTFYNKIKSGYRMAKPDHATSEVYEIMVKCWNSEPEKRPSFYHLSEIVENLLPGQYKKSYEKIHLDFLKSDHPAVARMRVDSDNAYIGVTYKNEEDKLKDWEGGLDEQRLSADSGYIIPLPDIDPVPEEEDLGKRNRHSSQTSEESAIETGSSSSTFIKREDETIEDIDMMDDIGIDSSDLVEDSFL
Procedure, shortened: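 Cells seeded in low-serum medium are exposed to test compound for one hour, then PDGF-AA (50 ng/ml) triggers receptor phosphorylation for 5 min at 37 °C. Phospho-PDGF-Ra in solubilized cells is quantified by anti-phosphotyrosine capture ELISA at 450 nm.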

c-kit = target: T2, c-kit (Homo sapiens, UniProt P10721); test: Inhibitory activity against c-kit autophosphorylation (MO7e cells, h-SCF); assay type: cell-based; conditions: for IC50: MO7e cells, 50 ng/ml h-SCF, read-out: c-kit IC50; for inhibition at 1 µM: Mo7e, figure within parentheses in −( ) or >1000( ), at 1000 nM
T2 construct: MO7e (human megakaryocytic leukemia cell line) which had been arrested for 20 hr; endogenous in cells; host or cells: MO7e human megakaryocytic leukemia cell line
T2 sequence (P10721 26-976): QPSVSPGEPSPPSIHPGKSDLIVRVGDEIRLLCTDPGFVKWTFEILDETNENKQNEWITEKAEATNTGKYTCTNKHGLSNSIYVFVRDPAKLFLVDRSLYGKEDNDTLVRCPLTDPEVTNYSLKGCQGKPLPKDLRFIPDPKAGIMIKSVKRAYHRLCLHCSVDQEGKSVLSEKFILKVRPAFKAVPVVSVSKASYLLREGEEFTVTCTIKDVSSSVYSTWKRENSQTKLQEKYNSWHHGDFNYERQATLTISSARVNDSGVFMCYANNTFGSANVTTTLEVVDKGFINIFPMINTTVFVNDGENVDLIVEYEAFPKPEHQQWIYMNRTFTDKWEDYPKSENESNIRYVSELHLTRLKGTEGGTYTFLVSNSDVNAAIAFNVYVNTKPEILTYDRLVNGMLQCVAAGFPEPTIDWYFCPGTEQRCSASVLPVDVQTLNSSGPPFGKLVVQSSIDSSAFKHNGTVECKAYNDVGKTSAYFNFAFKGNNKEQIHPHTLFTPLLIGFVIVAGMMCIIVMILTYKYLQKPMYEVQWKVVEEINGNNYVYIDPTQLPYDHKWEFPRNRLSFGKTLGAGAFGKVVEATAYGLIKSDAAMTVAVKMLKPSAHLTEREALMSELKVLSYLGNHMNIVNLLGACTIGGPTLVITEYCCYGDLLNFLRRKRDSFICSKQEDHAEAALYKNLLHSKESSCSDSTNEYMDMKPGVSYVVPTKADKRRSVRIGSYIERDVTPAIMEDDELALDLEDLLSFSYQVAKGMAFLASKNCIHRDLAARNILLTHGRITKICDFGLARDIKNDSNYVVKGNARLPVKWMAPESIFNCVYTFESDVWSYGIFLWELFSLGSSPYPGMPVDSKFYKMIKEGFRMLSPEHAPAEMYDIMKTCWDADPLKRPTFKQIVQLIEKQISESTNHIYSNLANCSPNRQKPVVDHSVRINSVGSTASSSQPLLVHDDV
Procedure, shortened: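 MO7e cells, arrested for 20 hr, were pretreated with test compound in DMSO for 1 hr and then stimulated with 50 ng/ml h-SCF for 5 min before lysis. Lysates were captured on immobilized anti-phosphotyrosine PY-20, probed with anti-c-kit antibody and HRP anti-rabbit IgG, and read colorimetrically at 450 nm.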

| IC50 (PDGF-Ra) [nM] | inhibition at 0.1 µM (PDGF-Ra) [%] | IC50 (c-kit) [nM] | inhibition at 1 µM (c-kit) [%] | SMILES |
| --- | --- | --- | --- | --- |
| > 100 | 25 | 613 | – | CCCC(CCN1CCN(C)CC1)OC(=O)Nc1ccc(Oc2ccnc3cc(OC)c(OC)cc23)c(C)c1C (stereo not drawn) [Example 451, 1-[2-(4-Methylpiperazino)ethyl]butyl N-{4-[(6,7-dimethoxy-4-quinolyl)oxy]-2,3-dimethylphenyl}carbamate] |
| > 100 | 31 | – | 37 | CCCC(CCN1CCN(C)CC1)OC(=O)Nc1ccc(Oc2ncnc3cc(OC)c(OC)cc23)cc1 (stereo not drawn) [Example 452, 1-[2-(4-Methylpiperazino)ethyl]butyl N-{4-[(6,7-dimethoxy-4-quinazolinyl)oxy]phenyl}carbamate] |
| 52 | – | 575 | – | COc1cc2nccc(Oc3ccc(NC(=O)OC4CCCN(C)C4)cc3)c2cc1OC (stereo not drawn) [Example 462, 1-Methyl-3-piperidyl N-{4-[(6,7-dimethoxy-4-quinolyl)oxy]phenyl}carbamate] |
| 91 | – | 432 | – | COc1cc2nccc(Oc3cc(C)c(NC(=O)OC4CCCN(C)C4)cc3C)c2cc1OC (stereo not drawn) [Example 463, 1-Methyl-3-piperidyl N-{4-[(6,7-dimethoxy-4-quinolyl)oxy]-2,5-dimethylphenyl}carbamate] |
| 55 | – | 201 | – | COc1cc2nccc(Oc3ccc(NC(=O)OC4CCCN(C)C4)c(C)c3C)c2cc1OC (stereo not drawn) [Example 464, 1-Methyl-3-piperidyl N-{4-[(6,7-dimethoxy-4-quinolyl)oxy]-2,3-dimethylphenyl}carbamate] |
| > 100 | 0 | – | 28 | COc1cc2ncnc(Oc3ccc(NC(=O)OC4CCN(C)CC4)cc3)c2cc1OC [Example 469, 1-Methyl-4-piperidyl N-{4-[(6,7-dimethoxy-4-quinazolinyl)oxy]phenyl}carbamate] |
| 26 | – | 128 | – | COc1cc2nccc(Oc3ccc(NC(=O)OC4CCOCC4)cc3)c2cc1OC [Example 470, Tetrahydro-2H-4-pyranyl N-{4-[(6,7-dimethoxy-4-quinolyl)oxy]phenyl}carbamate] |
| > 100 | 28 | 237 | – | COc1cc2nccc(Oc3cc(C)c(NC(=O)OC4CCOCC4)cc3C)c2cc1OC [Example 471, Tetrahydro-2H-4-pyranyl N-{4-[(6,7-dimethoxy-4-quinolyl)oxy]-2,5-dimethylphenyl}carbamate] |
| 31 | – | 67 | – | COc1cc2nccc(Oc3ccc(NC(=O)OC4CCOCC4)c(C)c3C)c2cc1OC [Example 472, Tetrahydro-2H-4-pyranyl N-{4-[(6,7-dimethoxy-4-quinolyl)oxy]-2,3-dimethylphenyl}carbamate] |
| > 100 | 30 | 259 | – | COc1cc2ncnc(Oc3ccc(NC(=O)OC4CCOCC4)cc3)c2cc1OC [Example 473, Tetrahydro-2H-4-pyranyl N-{4-[(6,7-dimethoxy-4-quinazolinyl)oxy]phenyl}carbamate] |
| 46 | – | – | 6 | COc1cc2ncnc(Oc3ccc(N(C)C(=O)OC4CCCCC4)c(Cl)c3)c2cc1OC [Example 474, Cyclohexyl N-{2-chloro-4-[(6,7-dimethoxy-4-quinazolinyl)oxy]phenyl}-N-methylcarbamate] |
| 15 | – | – | 24 | CCN(C(=O)OC1CCCCC1)c1ccc(Oc2ncnc3cc(OC)c(OC)cc23)cc1Cl [Example 475, Cyclohexyl N-{2-chloro-4-[(6,7-dimethoxy-4-quinazolinyl)oxy]phenyl}-N-ethylcarbamate] |
| < 10 | – | 172 | – | COc1cc2ncnc(Oc3ccc(N(C)C(=O)OC4CCCCC4)cc3)c2cc1OC [Example 476, Cyclohexyl N-{4-[(6,7-dimethoxy-4-quinazolinyl)oxy]phenyl}-N-methylcarbamate] |
| 59 | – | 248 | – | CCN(C(=O)OC1CCCCC1)c1ccc(Oc2ncnc3cc(OC)c(OC)cc23)cc1 [Example 477, Cyclohexyl N-{4-[(6,7-dimethoxy-4-quinazolinyl)oxy]phenyl}-N-ethylcarbamate] |
| 17 | – | – | 28 | COc1ccccc1COC(=O)N(C)c1ccc(Oc2ncnc3cc(OC)c(OC)cc23)cc1Cl [Example 478, 2-Methoxybenzyl N-{2-chloro-4-[(6,7-dimethoxy-4-quinazolinyl)oxy]phenyl}-N-methylcarbamate] |
| 13 | – | – | 17 | COc1cc2ncnc(Oc3ccc(N(C)C(=O)OCc4ccccc4C)c(Cl)c3)c2cc1OC [Example 479, 2-Methylbenzyl N-{2-chloro-4-[(6,7-dimethoxy-4-quinazolinyl)oxy]phenyl}-N-methylcarbamate] |
| 10 | – | – | 22 | COc1cc2ncnc(Oc3ccc(N(C)C(=O)OCc4ccccc4Cl)c(Cl)c3)c2cc1OC [Example 480, 2-Chlorobenzyl N-{2-chloro-4-[(6,7-dimethoxy-4-quinazolinyl)oxy]phenyl}-N-methylcarbamate] |
| 16 | – | – | 3 | CCCC(CCC)OC(=O)N(C)c1ccc(Oc2ncnc3cc(OC)c(OC)cc23)cc1Cl [Example 481, 1-Propylbutyl N-{2-chloro-4-[(6,7-dimethoxy-4-quinazolinyl)oxy]phenyl}-N-methylcarbamate] |
| 24 | – | – | 5 | COc1cc2ncnc(Oc3ccc(N(C)C(=O)OC4CCCCCC4)c(Cl)c3)c2cc1OC [Example 482, Cycloheptyl N-{2-chloro-4-[(6,7-dimethoxy-4-quinazolinyl)oxy]phenyl}-N-methylcarbamate] |
| 20 | – | < 30 | – | COc1cc2nccc(Oc3ccc(N(C)C(=O)OCC4CCCCCC4)cc3)c2cc1OC [Example 483, Cycloheptylmethyl N-{4-[(6,7-dimethoxy-4-quinolyl)oxy]phenyl}-N-methylcarbamate] |
| 12 | – | 75 | – | COc1cc2ncnc(Oc3ccc(N(C)C(=O)OCC4CCCCCC4)cc3)c2cc1OC [Example 484] |
| 58 | – | 637 | – | CCN(C(=O)OC1CCCCCC1)c1ccc(Oc2ncnc3cc(OC)c(OC)cc23)cc1Cl [Example 489, Cycloheptyl N-{2-chloro-4-[(6,7-dimethoxy-4-quinazolinyl)oxy]phenyl}-N-ethylcarbamate] |
| 21 | – | 261 | – | COc1ccccc1COC(=O)N(C)c1ccc(Oc2ncnc3cc(OC)c(OC)cc23)cc1 [Example 490, 2-Methoxybenzyl N-{4-[(6,7-dimethoxy-4-quinazolinyl)oxy]phenyl}-N-methylcarbamate] |
| 24 | – | 315 | – | COc1cc2ncnc(Oc3ccc(N(C)C(=O)OCc4ccccc4C)cc3)c2cc1OC [Example 491, 2-Methylbenzyl N-{4-[(6,7-dimethoxy-4-quinazolinyl)oxy]phenyl}-N-methylcarbamate] |
| 20 | – | 321 | – | COc1cc2ncnc(Oc3ccc(N(C)C(=O)OCc4ccccc4Cl)cc3)c2cc1OC [Example 492, 2-Chlorobenzyl N-{4-[(6,7-dimethoxy-4-quinazolinyl)oxy]phenyl}-N-methylcarbamate] |

| SMILES | IC50 (PDGF-Ra) [nM] | inhibition at 0.1 µM (PDGF-Ra) [%] | IC50 (c-kit) [nM] | inhibition at 1 µM (c-kit) [%] |
| --- | --- | --- | --- | --- |
| COc1cc2nccc(Oc3ccc(NC(=O)Oc4cccc(C#N)c4)c(C)c3C)c2cc1OC [Example 459, 3-Cyanophenyl N-{4-[(6,7-dimethoxy-4-quinolyl)oxy]-2,3-dimethylphenyl}carbamate] | 47 | – | < 30 | – |

Source: patent US7135466B2 (Kirin Beer Kabushiki Kaisha, priority 1999, dated 2006)
